Reference: the supplement of paper PMC10307832

Columns and labels:
Test in all cases: relative viability (nuclei count vs DMSO), 5 days (fraction); higher = more cells survive
Afatinib + AZD7762 = compound: CN(C)C/C=C/C(=O)Nc1cc2c(Nc3ccc(F)c(Cl)c3)ncnc2cc1O[C@H]1CCOC1 [Afatinib] + NC(=O)Nc1cc(-c2cccc(F)c2)sc1C(=O)N[C@H]1CCCNC1 [AZD7762] (partner 0.2 µM)
Outline: (§1)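 For relative viability, nuclei counts in treated wells were divided by those in vehicle wells. Lung cancer cell lines had been pin-tool dosed in 1536-well plates the day after seeding and cultured for 5 days, then fixed and stained in one step (final 0.05% Triton X-100, 1% formaldehyde, 1 ug/ml Hoechst) and imaged at 4×. Doses were one drug alone or a fixed anchor-drug dose plus five library-drug doses (not always all listed) in √10 steps, and values are duplicate-plate medians.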

Afatinib + Vorinostat = compound: CN(C)C/C=C/C(=O)Nc1cc2c(Nc3ccc(F)c(Cl)c3)ncnc2cc1O[C@H]1CCOC1 [Afatinib] + O=C(CCCCCCC(=O)Nc1ccccc1)NO [Vorinostat] (partner 1 µM)
Outline: as §1

Afatinib + Foretinib = compound: CN(C)C/C=C/C(=O)Nc1cc2c(Nc3ccc(F)c(Cl)c3)ncnc2cc1O[C@H]1CCOC1 [Afatinib] + COc1cc2c(Oc3ccc(NC(=O)C4(C(=O)Nc5ccc(F)cc5)CC4)cc3F)ccnc2cc1OCCCN1CCOCC1 [Foretinib] (partner 0.25 µM)
Outline: as §1

Afatinib + Pictilisib = compound: CN(C)C/C=C/C(=O)Nc1cc2c(Nc3ccc(F)c(Cl)c3)ncnc2cc1O[C@H]1CCOC1 [Afatinib] + CS(=O)(=O)N1CCN(Cc2cc3nc(-c4cccc5[nH]ncc45)nc(N4CCOCC4)c3s2)CC1 [Pictilisib] (partner 1 µM)
Outline: as §1

Cell Line | relative viability (Afatinib + AZD7762; first compound 0.005 µM) | relative viability (Afatinib + AZD7762; first compound 0.01581 µM) | relative viability (Afatinib + AZD7762; first compound 0.05 µM) | relative viability (Afatinib + AZD7762; first compound 0.1581 µM) | relative viability (Afatinib + AZD7762; first compound 0.5 µM) | relative viability (Afatinib + Vorinostat; first compound 0.005 µM) | relative viability (Afatinib + Vorinostat; first compound 0.01581 µM) | relative viability (Afatinib + Vorinostat; first compound 0.05 µM) | relative viability (Afatinib + Vorinostat; first compound 0.1581 µM) | relative viability (Afatinib + Vorinostat; first compound 0.5 µM) | relative viability (Afatinib + Foretinib; first compound 0.005 µM) | relative viability (Afatinib + Foretinib; first compound 0.01581 µM) | relative viability (Afatinib + Foretinib; first compound 0.05 µM) | relative viability (Afatinib + Foretinib; first compound 0.1581 µM) | relative viability (Afatinib + Foretinib; first compound 0.5 µM) | relative viability (Afatinib + Pictilisib; first compound 0.005 µM) | relative viability (Afatinib + Pictilisib; first compound 0.01581 µM) | relative viability (Afatinib + Pictilisib; first compound 0.05 µM) | relative viability (Afatinib + Pictilisib; first compound 0.1581 µM) | relative viability (Afatinib + Pictilisib; first compound 0.5 µM)
NCI-H441 | 1.56 | 0.993 | 1.09 | 1.16 | 1.1 | 0.791 | 0.94 | 0.737 | 0.878 | 0.698 | 1.22 | 0.837 | 0.987 | 0.742 | 0.75 | 0.431 | 0.504 | 0.436 | 0.481 | 0.31
NCI-H1793 | 0.193 | 0.304 | 0.451 | 0.268 | 0.231 | 0.733 | 0.424 | 0.411 | 0.401 | 0.38 | 0.621 | 0.463 | 0.401 | 0.352 | 0.353 | 0.36 | 0.23 | 0.362 | 0.39 | 0.31
NCI-H23 | 0.17 | 0.226 | 0.237 | 0.23 | 0.195 | 0.787 | 0.589 | 0.615 | 0.619 | 0.591 | 0.99 | 1.02 | 1.02 | 0.847 | 0.951 | 0.543 | 0.52 | 0.501 | 0.424 | 0.398
HARA |  |  | 0.225 | 0.217 | 0.287 | 0.586 | 0.543 |  | 0.458 | 0.58 | 0.825 | 0.451 | 0.401 | 0.377 | 0.403 | 0.429 | 0.331 | 0.16 | 0.206 | 0.195
NCI-H1792 | 0.615 | 0.534 | 0.703 | 0.643 | 0.466 |  |  |  |  |  |  |  |  |  |  | 0.303 | 0.325 | 0.255 | 0.241 | 0.243
NCI-H1703 | 0.13 | 0.141 | 0.119 | 0.121 | 0.109 |  |  |  |  |  | 0.319 |  | 0.347 | 0.361 | 0.329 | 0.239 | 0.246 | 0.263 | 0.23 | 0.205
NCI-H2342 | 0.562 | 0.488 | 0.477 | 0.434 | 0.474 | 0.706 | 0.628 | 0.729 | 0.695 | 0.696 | 0.892 | 0.895 | 0.856 | 0.743 | 0.774 |  |  |  |  | 
CAL-12T | 0.631 | 0.594 | 0.546 | 0.491 | 0.505 | 0.727 | 0.647 | 0.552 | 0.364 | 0.396 | 1.15 | 1.02 | 1.29 | 0.56 | 0.684 | 0.389 | 0.393 | 0.347 | 0.447 | 0.27
NCI-H727 | 0.574 | 0.467 | 0.527 | 0.515 | 0.543 | 1.08 | 0.953 | 1 | 0.906 | 0.956 | 0.82 | 0.588 | 0.762 | 0.709 | 0.752 | 0.315 | 0.401 | 0.306 | 0.279 | 0.281
NCI-H2085 | 0.753 | 0.957 | 0.897 | 0.636 | 0.753 | 0.746 | 0.684 | 0.66 | 0.623 | 0.682 | 0.888 | 0.773 | 0.791 | 0.59 | 0.628 | 0.486 | 0.438 | 0.459 | 0.494 | 0.435
NCI-H1395 | 0.388 | 0.378 | 0.377 | 0.385 | 0.354 | 0.857 | 0.571 | 0.674 | 0.711 | 0.5 | 0.939 | 1.05 | 0.973 | 0.914 | 0.937 | 0.658 | 0.515 | 0.723 | 0.624 | 0.551
NCI-H1648 | 0.735 | 0.596 | 0.531 | 0.58 | 0.546 | 0.398 | 0.421 | 0.271 | 0.421 | 0.26 |  |  |  |  |  |  |  |  |  | 
NCI-H460 | 0.396 | 0.595 | 0.62 | 0.635 | 0.603 | 0.892 | 0.767 | 0.722 | 0.702 | 0.686 | 0.987 | 0.895 | 0.943 | 1.07 | 0.978 | 0.371 | 0.39 | 0.339 | 0.35 | 0.343
A549 |  |  |  |  |  |  |  |  |  |  | 0.826 | 0.835 | 0.781 | 0.806 | 0.861 | 0.499 | 0.416 | 0.478 | 0.389 | 0.442
IA-LM |  |  |  |  |  | 1.1 | 0.964 | 0.866 | 0.81 | 0.892 | 1.47 | 1.13 | 1.2 | 1.03 | 1.07 | 0.251 | 0.221 | 0.227 | 0.198 | 0.212
EKVX | 0.638 | 0.368 | 0.373 | 0.315 | 0.865 | 0.588 | 0.385 | 0.284 | 0.31 | 0.276 | 0.838 | 0.428 | 0.453 | 0.129 | 0.318 | 0.391 | 0.346 | 0.203 | 0.118 | 0.104
ChaGo-K-1 | 0.801 | 0.868 | 0.827 | 0.871 | 0.827 | 0.81 | 0.777 | 0.789 | 0.754 | 0.695 | 0.86 | 0.882 | 0.876 | 0.86 | 0.846 | 0.893 | 0.45 | 0.757 | 0.583 | 0.88
NCI-H1755 | 0.359 | 0.562 | 0.528 | 0.398 | 0.417 | 0.9 | 0.935 | 0.789 | 0.79 | 0.727 | 0.947 | 0.937 | 0.964 | 0.901 | 0.897 | 0.433 | 0.435 | 0.41 | 0.368 | 0.358
